The nature of the data set: Solubility behavior of solid phenothiazine in acrylic acid (method 1b, NIR probe). The note with it: room temperature.

Protocol: Method for determining the solubility behavior of solid phenothiazine of different forms and particle size distributions
Thereafter, at time intervals of from 1 to 5 mm, either a.) a sample of the dispersion was taken and filtered and the phenothiazine content was determined by UV spectroscopy or b.) the phenothiazine content was determined directly by means of an NIR probe which dipped into the dispersion of phenothiazine in acrylic acid (NIRVIS universal spectrometer from Buchi having a transmission probe with 1.5 mm slit width. In order to prevent disturbances by solid particles in the measuring slit, this was closed by means of a metal screen having a mesh size of 0.18 mm).
For this purpose, in each case 1.33 g of the respective sample were added to 66 g of acrylic acid and measurements were carried out at intervals of one minute (Graph. 1).

For the compound `c1ccc2c(c1)Nc1ccccc1S2` [phenothiazine, 2,3,5,6-dibenzo-1,4-triazine], the “maximum solubility of phenothiazine in acrylic acid” value is “about 2.8 % (m/m)”.

For the origin of these results see patent US20040094749A1, “Method for producing a phenothiazine granulate with improved properties” (priority 2000, published 2004).
